Where two headings read alike, the source gives them in different places. Residues, ends and D or L forms follow the SMILES beside them.
Tests used:
[1] = test system: HepG2 liver hepatocellular carcinoma cells; assay: in vitro
[2] = test system: HK-2 human kidney proximal tubule cells; assay: in vitro
[3] = test system: HEK-293 human embryonic kidney cells; assay: in vitro
in vitro = conditions: human
[4] = inhalation, mice; for Tmax: relative to end of inhalation

For `CC(C)[C@@H]1NC(=O)[C@H](Cc2ccc(O)cc2)NC(=O)[C@H](Cc2c[nH]c3ccccc23)NC(=O)[C@@H](NC(=O)[C@H](Cc2ccccc2)NC(=O)CN)CSSC[C@@H](C(=O)N[C@@H](CC(N)=O)C(=O)O)NC(=O)[C@H](CCCNC(=N)N)NC(=O)[C@H](CCCNC(=N)N)NC(=O)[C@H](Cc2ccc(O)cc2)NC(=O)[C@@H]2CSSC[C@H](NC1=O)C(=O)N[C@@H](C)C(=O)N[C@@H](CCCNC(=N)N)C(=O)N[C@@H](CCCNC(=N)N)C(=O)N[C@@H](CC(N)=O)C(=O)NCC(=O)N[C@@H](C)C(=O)N[C@@H](CCCNC(=N)N)C(=O)N[C@@H](C(C)C)C(=O)N2` [AA139] (HELM PEPTIDE1{G.F.C.W.Y.V.C.A.R.R.N.G.A.R.V.C.Y.R.R.C.N}$PEPTIDE1,PEPTIDE1,3:R3-20:R3|PEPTIDE1,PEPTIDE1,7:R3-16:R3$$$V2.0), the “CC50 HepG2” value [1] was over 300 µg/mL, the “CC50 HepG2, Mean” value [1] was over 300 µg/mL and the “CC50 HK2” value [2] was over 255 µg/mL. The “CC50 HK2, Mean” value [2] was over 250 µg/mL, the “CC50 HEK293, Mean” value [3] was over 300 µg/mL and the CC50 at 24 h (in vitro; HEK-293 cells) was over 300 µg/mL. For the same compound, the CC50 at 24 h (in vitro; HK-2 cells) was over 250 µg/mL, the CC50 at 24 h (in vitro; HepG2 cells) was over 300 µg/mL and the “AUC(0-t)” value ([4]; ELF, Day 1, 5 mg kg-1/day) was 27,250 ng*h mL-1. For the same compound, the Cmax ([4]; ELF, Day 1, 5 mg kg-1/day) was 14,750 ng mL-1, the Tmax ([4]; ELF, Day 1, 5 mg kg-1/day) was 30 min and the Cmax ([4]; ELF, Day 1, 20 mg kg-1/day) was 8,245 ng mL-1. For the same compound, the Tmax ([4]; ELF, Day 1, 20 mg kg-1/day) was 78 min, the “AUC(0-t)” value ([4]; ELF, Day 1, 40 mg kg-1/day) was 63,300 ng*h mL-1 and the Cmax ([4]; ELF, Day 1, 40 mg kg-1/day) was 36,300 ng mL-1. The Tmax ([4]; ELF, Day 1, 40 mg kg-1/day) was 0 min, the “AUC(0-t)” value ([4]; ELF, Day 7, 5 mg kg-1/day) was 58,650 ng*h mL-1 and the Cmax ([4]; ELF, Day 7, 5 mg kg-1/day) was 21,100 ng mL-1. The Tmax ([4]; ELF, Day 7, 5 mg kg-1/day) was 18 min, the Cmax ([4]; ELF, Day 7, 20 mg kg-1/day) was 42,350 ng mL-1 and the Tmax ([4]; ELF, Day 7, 20 mg kg-1/day) was 0 min. For the same compound, the “AUC(0-t)” value ([4]; Lung (ng/g), Day 1, 5 mg kg-1/day) was 8,585 ng*h mL-1, the “AUC(0-t)” value ([4]; Lung (ng/g), Day 1, 20 mg kg-1/day) was 14,411 ng*h mL-1 and the “AUC(0-t)” value ([4]; Lung (ng/g), Day 1, 40 mg kg-1/day) was 7,002 ng*h mL-1. For the same compound, the “AUC(0-t)” value ([4]; Lung (ng/g), Day 7, 5 mg kg-1/day) was 11,802 ng*h mL-1, the “AUC(0-t)” value ([4]; Lung (ng/g), Day 7, 20 mg kg-1/day) was 66,791 ng*h mL-1 and the Cmax ([4]; Lung, Day 1, 5 mg kg-1/day) was 3,935 ng/g. The Tmax ([4]; Lung, Day 1, 5 mg kg-1/day) was 0 min, the Cmax ([4]; Lung, Day 1, 20 mg kg-1/day) was 7,691 ng/g and the Tmax ([4]; Lung, Day 1, 20 mg kg-1/day) was 0 min. The Cmax ([4]; Lung, Day 1, 40 mg kg-1/day) was 16,162 ng/g, the Tmax ([4]; Lung, Day 1, 40 mg kg-1/day) was 0 min and the Cmax ([4]; Lung, Day 7, 5 mg kg-1/day) was 4,228 ng/g. For the same compound, the Tmax ([4]; Lung, Day 7, 5 mg kg-1/day) was 0 min, the Cmax ([4]; Lung, Day 7, 20 mg kg-1/day) was 15,133 ng/g and the Tmax ([4]; Lung, Day 7, 20 mg kg-1/day) was 30 min. It also gave a Tmax ([4]; Plasma, Day 7, 5 mg kg-1/day) of 18 min and a Tmax ([4]; Plasma, Day 7, 20 mg kg-1/day) of 0 min.

— PMC7311426, “An amphipathic peptide with antibiotic activity against multidrug-resistant Gram-negative bacteria” (Nature Communications, 2020)
